Experimental data reported in patent publication US6900239B2, “Tumor chemopotentiation using isocoumarin derivatives” (ILWZ ILEX Products, Inc., priority 2000, dated 2005).

Columns and labels:
[1] = tested on: Lewis Lung Carcinoma (LLC); assay: NM-3 and ionizing radiation, tumor growth; type: in vivo, C57BL/6 nude mice
Description: (§1) The effects of NM-3 and IR on tumor growth were assessed in Lewis Lung Carcinoma (LLC), Seg-1, and SQ-20B tumors implanted in C57BL/6 nude mice.
By day 7, LLC tumors in the control group and the NM-3 group grew to 8.02±1.24 and 6.19±0.44 times original volume, respectively. Animals in these treatment groups were sacrificed on day 7 due to tumor burden. LLC tumors in the IR (20+20 Gy) group initially grew and then regressed to 1.06±0.08 times original volume (day 7). Regression was followed by regrowth to 2.98±0.83 times original volume at day 15 when the experiment was terminated. […] (FIG. 8A)

[2] = tested on: MM1.S human multiple myeloma cells; assay: Cell viability by MTT assay; type: cell-based
Description: NM-3 was dissolved in Mg^2+ and Ca^2+ free phosphate buffered saline (PBS) by adding appropriate volume of 10 N NaOH (final pH<7.0). DEX was dissolved in absolute ethanol and diluted with PBS. Final concentration of ethanol in the culture medium was 0.5% or less. DOX was dissolved in PBS.
(§2) The human multiple myeloma cell line MM1.S was maintained in RPMI1640 medium supplemented with 10% fetal bovine serum, 100 units/ml penicillin, and 100 μg/ml streptomycin at 37° C. in an atmosphere of 5% CO2 in air. Cells (3×10^4 cells/well) were seeded in 96 well-plates and incubated with increasing concentrations of DEX or DOX in the presence or absence of NM-3. NM-3 was added at concentrations of 0, 50, 100 and 200 μg/ml 2 hours before the addition of DOX or DEX. After 24 hours of DOX or DEX exposure, 10 μl of MTT reagent (Roche Molecular Biochemicals, final concentration 0.5 mg/ml) was added to each well and allowed to incubate for 4 hours. After the incubation, 100 μl of solubilization solution (10% sodium dodecyl sulfate in 0.01M HCl) was added to each well and allowed to incubate overnight. Optical density at 565 nm was determined using a spectrophotometer (Molecular Devices Corp.).

MKN28 = assay: Cell growth (WST-1) in the presence of NM-3; type: cell-based; settings: Homo sapiens, MKN-28, 72 h; 3 days culture; value somewhat low due to the influence of DMSO
U266 cells = assay: Cell viability by MTT assay; type: cell-based, human
Description: as §2
(§3) The effects of NM-3 in combination with dexamethasone on the viability of RPM18662 and U266 human multiple meyeloma cells were investigated. Experimental conditions were as described in Example 11, with the exception that cells were seeded at 6×10^3 cells/well and the cells were incubated with the appropriate concentrations of NM-3 and DEX for either 48 or 72 hours prior to addition of the MTT reagent.

RPMI8662 cells = assay: Cell viability by MTT assay; type: cell-based, human
Description: as §2, §3

[3] = tested on: Human umbilical vein endothelial cells (HUVEC); assay: HUVEC colony formation with a constant amount of gamma radiation; type: cell-based
Description: Human umbilical vein endothelial cells (HUVEC) were exposed to a constant amount of gamma radiation in the presence or absence of various concentrations of NM-3 in the culture medium. The numbers of HUVEC colonies that formed following the different treatments were recorded and normalized to the number of colonies formed under control (no NM-3) conditions and the results are shown in FIG. 1. […] For comparison, HUVEC cells were treated with either angiostatin or endostatin, two additional anti-angiogenic proteins.

SQ-20B tumors = assay: NM-3 and ionizing radiation, tumor growth; type: in vivo, C57BL/6 nude mice
Description: as §1
In experiments conducted using SQ-20B tumors, control tumors grew to 5.2±0.94 times original volume by day 20. […] Animals in these two groups were subsequently sacrificed because of tumor burden. […] By day 38, IR treated tumors regrew to twice original volume.

B16-BL6 melanoma cells = assay: Experimental tumor metastasis (lung colonies); type: in vivo, BDF1 mice; settings: for Inhibition (%): days 1~13; for Number of lung metastases (Mean ± S.D.): days 1~13, counted day 14
From the text: To determine the antitumor effect of NM-3 on metastatic tumor growth, B16-BL6 melanoma cells (2×10^4 cells per mouse) were transplanted into BDF1 mice (female, 5 weeks old) via the tail vein. NM-3 was continuously administered via the oral route for 13 days following transplantation of the tumor cells. On day 14, the lungs were excised and fixed, and the metastatic colony numbers were counted.

[4] = NM-3 alone, 50 and 100 μg/ml, 72 hours preincubation
[5] = NM-3 alone, 48 hour preincubation

COc1cc(O)c2c(=O)oc(C(C)C(=O)O)cc2c1 (stereo not shown) [NM-3, 2-(8-hydroxy-6-methoxy-1-oxo-1H-2-benzopyran-3-yl) propionic acid]
Tumor volume ([1]; NM-3 alone, day 7): 6.19±0.44 times original volume
Mean tumor volume compared with IR alone ([1]; NM-3 combined with IR (20+20 Gy), day 3, 4, 5, 9, 11, 13 and 15): significantly reduced mean tumor volume
Potentiation of DEX-induced cell death ([2]; NM-3 50-200 μg/ml added 2 hours before DEX, 24 hours): potentiated DEX-induced cell death
Cell viability ([2]; NM-3 alone, 50-200 μg/ml): only slightly decreased the cell viability
IC50 (MKN28): 175 µg/mL
Potentiation of DEX-induced cell death (U266 cells; 48 or 72 hours): potentiated DEX-induced cell death
Decrease in cell viability (U266 cells; [4]): less evident
Cell viability (U266 cells; [5]): dose dependent decrease in cell viability
Potentiation of DEX-induced cell death (RPMI8662 cells; 48 or 72 hours): potentiated DEX-induced cell death
Decrease in cell viability (RPMI8662 cells; [4]): less evident
Cell viability (RPMI8662 cells; [5]): dose dependent decrease in cell viability
ED50, decrease of HUVEC colony formation [3]: approximately 1 μg/ml
Tumor volume (SQ-20B tumors; NM-3 alone, day 20): 4.3±1.03 times original volume
Tumor size (SQ-20B tumors; NM-3 and IR (65 Gy), by day 6): doubled in size
Tumor regrowth (SQ-20B tumors; NM-3 and IR (65 Gy), by day 38, p=0.006 vs IR alone): failed to reach original volume
Tumor volume, % of original volume (SQ-20B tumors; NM-3 and IR (65 Gy), day 23): 77%
Inhibition (%) (B16-BL6 melanoma cells; 0.08 mg/kg p.o.): −5.3%
Number of lung metastases (Mean ± S.D.) (B16-BL6 melanoma cells; 0.08 mg/kg p.o.): 88.7 ± 16.1
Inhibition (%) (B16-BL6 melanoma cells; 0.31 mg/kg p.o.): 24.0%
Number of lung metastases (Mean ± S.D.) (B16-BL6 melanoma cells; 0.31 mg/kg p.o.): 64.0 ± 23.8
Inhibition (%) (B16-BL6 melanoma cells; 1.25 mg/kg p.o.): 13.8%
Number of lung metastases (Mean ± S.D.) (B16-BL6 melanoma cells; 1.25 mg/kg p.o.): 72.6 ± 20.6
Inhibition (%) (B16-BL6 melanoma cells; 5.0 mg/kg p.o.): 18.8%
Number of lung metastases (Mean ± S.D.) (B16-BL6 melanoma cells; 5.0 mg/kg p.o.): 68.4 ± 16.9
Number of pleural metastatic foci versus control (B16-BL6 melanoma cells; 0.08 to 5 mg/kg p.o.): reduction in the number of pleural metastatic foci
